Test results: article PMC9276676, “Difluoromethylornithine (DFMO) and AMXT 1501 inhibit capsule biosynthesis in pneumococci” (Scientific Reports, 2022)

Experiments:
Type in all cases: cell-based, Streptococcus pneumoniae
[1] = tested on: S. pneumoniae D39
Description: This was done to directly compare possible changes in intracellular concentrations of polyamines and capsule precursors as a result of DFMO inhibition of polyamine synthesis to the earlier report where polyamine synthesis was affected via gene deletion in TIGR4[24]. […] Cells were harvested (5000×g, 10 min, 4 °C), re-suspended in extraction solvent [40% acetonitrile, 40% methanol, 20% water with formic acid (0.1 M)] and transferred to bead-beater tubes (MP Biomedicals, Irvine, CA, USA). Cells were lysed using a FastPrep-24™ Classic (45 s, 6.5 m/s, RT, 3 times) (MP Biomedicals, Irvine, CA, USA) and incubated on ice (5 min after each spin). TIGR4 lysates were clarified (6000×g, 5 min, 4 °C), and metabolite differentiation and detection were performed using published protocols[28],[29]. Liquid chromatography-mass spectrometry-based (LC–MS) metabolomic analysis was performed with an Agilent Accurate Mass 6230 TOF coupled with an Agilent 1290 LC system using a Cogent Diamond Hydride Type C column. Briefly, the mobile phase consisted of the following: solvent A (ddH2O with 0.2% formic acid) and solvent B (acetonitrile with 0.2% formic acid). The gradient used was as follows: 0–2 min, 85% B; 3–5 min, 80% B; 6–7 min, 75% B; 8–9 min, 70% B; 10–11.1 min, 50% B; 11.1–14 min 20% B; 14.1–24 min 5% B followed by a 10 min re-equilibration period at 85% B at a flow rate of 0.4 mL/min. Mass axis dynamics was calibrated by continuous infusion of a reference mass solution using an isocratic pump. […] Metabolite identities were searched for using a mass tolerance of < 0.005 Da. Metabolite concentrations from the 5 biological replicates were normalized to biomass based on measurement of residual peptide content in individual samples using the Pierce BCA Protein Assay kit (Thermo Fisher Scientific, Waltham, MA, USA). Data were analyzed using Profinder B.07.00 software (Agilent Technologies, Santa Clara, CA, USA). Extracted molecular features detected in the mass analyzer were identified using accurate mass values and used to generate empirical molecular formulae using an in-house metabolite database that included known intermediates, amino acid precursors and polyamines and their derivatives. Statistical analysis of metabolite peak intensity data was performed using MetaboAnalyst 4.0[30]. Data were normalized (quantile), log transformed and significant fold change between WT and DFMO-treated WT were identified by Student’s t-test (p ≤ 0.05).
To measure the polyamines, glucose and glucuronic acid in D39, TSQ Quantum Access triple-quadrupole tandem mass spectrometer (Thermo Fisher Scientific, Waltham, MA, USA) equipped with acquity UPLC system (Waters, Milford, MA, USA) was operated in positive and negative ion mode. Chromatographic separation was performed on Cogent Diamond Hydride HPLC column (2.1 mm × 150 mm, 4 μm) coupled with Congent Diamond Hydride HPLC Guard column (2.0 mm × 10 mm, 4 μm). The flow rate was 500 µL/min, the sample injection volume was 10 µL, and the column temperature was at 40 °C. The mobile phase A was composed of water with 0.1% v/v formic acid, and mobile phase B was composed of acetonitrile with 0.1% v/v formic acid. The gradient condition was 0 min (5% A, 95% B), 1 min (5% A, 95% B), 4.0 min (30% A, 70% B), 6 min (95% A, 5% B), 6.5 min (95% A, 5% B), 7 min (5% A, 95% B), and 10 min (5% A, 95%B). The total run time was 10 min, and the column eluate directed into the mass spectrometer using an electrospray ionization interface in positive and negative modes. The MS conditions were set as follow: spray voltage = 3500 V, vaporizer temperature = 350 °C, sheath gas = 25 psi, auxiliary gas = 10 psi, and capillary temperature = 350 °C. Samples were run in selected reaction monitoring (SRM) mode, and the optimized MS/MS parameters for ionization are given in Table 1.

[2] = tested on: TIGR4 (serotype 4) capsule; experiment: Total capsular polysaccharide (CPS) immunoblot with densitometry
Description: (§1) S. pneumoniae strains were cultured with DFMO and AMXT 1501 at varying final concentrations of 1/2, 1/4, and 1/8 MIC to OD600 0.2–0.3 either individually or together to estimate any additive or synergistic effects. Capsular polysaccharides (CPS) were extracted and quantified in triplicate, as described previously[26] with slight modification. Briefly, CPS was extracted in a lysis buffer (4% deoxycholate, 50 µg/mL DNAse I and 50 µg/mL RNAse A) at 37 °C for 10 min and centrifuged at 18,000×g for 10 min. The supernatant (2 µL) was spotted on a 0.2-µm-pore-size nitrocellulose membrane (Thermo Fisher Scientific, Waltham, MA, USA) and oven dried at 60 °C for 15 min. The membranes were blocked and incubated with different types of antisera for capsule detection: antisera type- 4 (for TIGR4), 2 (for D39), polyclonal (for EF3030) and 3 (for WU2) (Cedarlane, Burlington, NC, USA). A conjugated polyclonal goat anti-rabbit IgG-HRP (Agilent Technologies, Santa Clara, CA, USA) was used for enhanced chemiluminescence (ECL) detection in all the strains (Thermo Fisher Scientific, Waltham, MA, USA) and scanned using a ChemiDoc XRS+ with Image Lab software (Bio-Rad, Hercules, CA, USA). Densitometry analysis of the immunoblot was done with NIH ImageJ software.
(§2) We determined the impact of varying concentrations of DFMO (1/8 to 1/2 MIC) on CPS in all serotypes (2, 4, 19F, and 3) used in this study. […] D39 was treated with 1/8 MIC DFMO alone, 1/4 MIC agmatine (Agm) alone, a combination of 1/8 MIC DFMO and 1/4 MIC Agm, and a control without DFMO or Agm. CPS was extracted as described in the previous section and immunoblot analysis with type 2 antisera was performed to detect CPS semi-quantitatively.

[3] = tested on: WU2 (serotype 3) capsule; experiment: as above
Description: as §1, §2

[4] = tested on: D39 (serotype 2) capsule; experiment: as above
Description: as §1, §2

[5] = tested on: EF3030 (serotype 19F) capsule; experiment: as above
Description: as §1, §2

[6] = DFMO 34 mM, agmatine 20 mM, AMXT 1501 7.4 µM, p-value in bracket omitted

NCCC[C@](N)(C(=O)O)C(F)F [DFMO, α-difluoromethylornithine]
intracellular glucose (peak intensity) ([1]; 1/8 MIC DFMO (34 mM), 1/2 MIC AMXT 1501 (7.4 µM)): significantly reduced
intracellular glucuronic acid (peak intensity) ([1]; 1/8 MIC DFMO (34 mM), 1/2 MIC AMXT 1501 (7.4 µM), separately or in combination): significantly depleted
Agmatine, fold change treated D39 /D39 [1, 6]: -1.3 (2.13E05)
Cadaverine, fold change treated D39 /D39 [1, 6]: -0.8 (0.004)
Lysine, fold change treated D39 /D39 [1, 6]: -0.2 (0.018)
N-acetyl spermidine, fold change treated D39 /D39 [1, 6]: -0.6 (0.094)
N-carbamoyl putrescine, fold change treated D39 /D39 [1, 6]: -1.6 (0.026)
Ornithine, fold change treated D39 /D39 [1, 6]: 0.4 (0.004)
Putrescine, fold change treated D39 /D39 [1, 6]: -0.4 (0.015)
Spermidine, fold change treated D39 /D39 [1, 6]: 0.3 (0.309)
Spermine, fold change treated D39 /D39 [1, 6]: -0.7 (0.002)
less capsule compared to untreated controls (densitometry of immunoblots) [2]: approximately 85%
inhibition of CPS ([2]; serotype 4, DFMO less than 137 mM): failed to inhibit CPS
less capsule compared to untreated controls (densitometry of immunoblots) [3]: ~39%
inhibition of CPS ([3]; serotype 3, DFMO less than 137 mM): failed to inhibit CPS
less capsule compared to untreated controls (densitometry of immunoblots) [4]: ~71%
concentration that inhibits CPS ([4]; D39, 1/8 MIC): 34 mM
total CPS (capsule) by immunoblot ([4]; D39, DFMO 1/8 MIC 34 mM, agmatine 1/4 MIC 20 mM, AMXT 1501 1/2 MIC 7.4 µM, alone or with agmatine): inhibits the capsule production
less capsule compared to untreated controls (densitometry of immunoblots) [5]: ~84%
inhibition of CPS ([5]; serotype 19F, DFMO less than 137 mM): failed to inhibit CPS
